Assay results reported in patent publication EP0485961A1, “Oncostatin M for stimulating LDL uptake and LDL receptor expression” (Bristol-Myers Squibb Company, priority 1990, dated 1992).

Columns and labels:
Type in all cases: cell-based, human
diacylglycerol = assay: Lipid analysis: diacylglycerol levels ([3H]-glycerol labelling, TLC); conditions: genistein
Method: Lipids from cells radiolabeled with [^32P]-orthophosphate or with (^3H]-glycerol were extracted by a modification of the method of Bligh and Dyer. Extracts, dried under a stream of nitrogen, were solublized with 100 ul of chloroform and spotted on thin-layer chromatography (TLC) plates (Silica Gel 60, Merck). The phospholipids were resolved either with a solvent system designed to separate the inositides (propanol: 4.3 M ammonium hydroxide, 65:35 v/v) or with a system designed to separate phosphatidylcholine and phosphatidylethanolamine (chloroform:methanol:acetic acid:water (50:35:8:1, v/v). Neutral lipids were resolved in a tank containing benzene:ethyl acetate (80:20, v/v). The radiolabeled phospholipids were identified as spots on autoradiographs which comigrated with authentic standards (detected with iodine vapors), were scraped into scintillation vials, and were quantitated in a scintillation counter. Neutral lipid standards (diacylglycerol and triacylglycerol) which were added to the [^3H)- glycerol labeled lipid extracts before chromatography were identified with iodine vapors, scraped into scintillation vials, and analyzed as outlined above.

HepG2 cells = assay: LDL uptake assay (fluorescent DiI-LDL method); conditions: for LDL UPTAKE % STIMULATION: HepG2
Method: LDL uptake in HepG2 cells cultured in 12 well plates (Costar) at 2 X 10^5 per well was assayed by the fluorescent LDL method using a fluorescence microscope and video camera (SIT 66) attached to computer (Laser 25) with JAVA image analysis software (Jandel Scientific, CA) as previously reported (Grove, et al.,). […] Specifically, 2 ug/ml Dil-LDL in serum free media was added to HepG2 monolayers for two hours. The monolayers were washed 3 times to remove free Dil-LDL and fixed with 4% formalin in phosphate-buffered saline. Accumulated fluorescence was measured by quantitating the average intensity of 25 - 50 cells. Three difference fields in each of duplicate or triplicate monolayers were quantitated and averaged. The amount of LDL protein taken up was determined as follows. Unfixed cell monolayers were solubilized with 0.1% sodium dodecyl sulfate, transferred into glass tubes, and the lipids (and Dil) were extracted into chloroform using the Bligh-Dyer extraction procedure. Fluorescence in the chloroform layer was quantitated with a fluorescence spectrophotometer (Perkin-Elmer) and compared with a standard curve generated by extracting Dil from known quantities of Dil-LDL. Coomassie blue kits (Pierce) were used to estimate cell proteins.

[1] = tested on: tyrosine phosphorylation in HepG2 proteins; assay: Phosphotyrosine proteins (antiphosphotyrosine immunoblot)
Method: HepG2 cells were plated into six well plates at 4 x 10^5 cells/well. After 48 hours (about 70% confluency), the cells were incubated with Oncostatin M or drugs for the indicated time, rapidly washed once with ice cold PBS, and lysed with 100ul of SDS-sample buffer containing 1 mM mercaptoethanol and 500 uM sodium vanadate. The bufer was rapidly mixed over the entire well before being removed and heated to 100° C for 15 minutes. The samples (25 ul) were separated by SDS-PAGE on 10-20% gradient gels and […] to Hybond C Extra membranes (Amersham). […] Proteins containing phosphotyrosine were detected using an affinity purified rabbit antiphosphotyrosine antibody followed by ['^251]-labeled protein A (ICN).

Molecule: O=c1c(-c2ccc(O)cc2)coc2cc(O)cc(O)c12 [Genistein]
- effect on Oncostatin M-induced elevations in diacylglycerol (diacylglycerol): inhibited
- LDL UPTAKE % STIMULATION (HepG2 cells): -10%
- effect on Oncostatin M-induced elevations in LDLR activity (HepG2 cells; genistein): inhibited
- effect on Oncostatin M-induced tyrosine phosphorylation ([1]; genistein 30 ug/ml, 30 minutes before Oncostatin M (100 ng/ml, 10 minutes)): mitigated

Molecule: CC1CNCCN1S(=O)(=O)c1cccc2cnccc12 (stereo not drawn) [H-7]
- effect on increase in LDL uptake induced by Oncostatin M (HepG2 cells; 10 ug/ml H-7 for 30 min, then 4 hours Oncostatin M (100 ng/ml)): prevented the increases in LDL uptake
- effect on increase in LDL uptake induced by PMA (HepG2 cells; 10 ug/ml H-7 for 30 min, then 4 hours PMA (10 nM)): prevented the increases in LDL uptake

Molecule: CCCCCCCCCCCCCC(=O)O[C@@H]1[C@@H](C)[C@@]2(O)[C@@H](C=C(CO)C[C@]3(O)C(=O)C(C)=C[C@@H]23)[C@@H]2C(C)(C)[C@]12OC(C)=O [PMA, phorbol 12-myristate 13-acetate]
- LDL uptake (HepG2 cells; PMA 10 nM, 4 hours, time dependency similar to Oncostatin M): induced LDL uptake
- effect on the inhibition of LDLR expression with genistein (HepG2 cells; PMA 50 nM added to genistein-inhibited HepG2 cells): reversed

Molecule: vanadate
- LDL UPTAKE % STIMULATION (HepG2 cells): 6%
- effect on LDLR expression stimulation by Oncostatin M (HepG2 cells; vanadate with Oncostatin M): synergistically enhance
- TYROSINE PHOSHORYLATION ([1]; HepG2, grades - to + + + + +, legend not given): + + +
- effect on tyrosine kinase stimulation by Oncostatin M ([1]; vanadate with Oncostatin M): synergistically enhance
